Series [1] in a line: Apparent oral clearance in RjOrl:Swiss (CD-1) mouse plasma at 30 mg/kg. The format is ADME, organism-based.
A further series has as its system HepG2. The series is described as follows: Cytotoxicity against human HepG2 cells assessed as cell viability up to 30 uM after 48 hrs by WST-1 assay. Particulars: hepg2, 48 h. The series is classed as cell-based. On the technique in general: Tetrazolium dyes change colour on reduction, which living cells bring about.
Series [2] is described as follows: Solubility of the compound in water by microplate reader analysis. The series is classed as physicochemical.
Series [3] deals with T1, Peroxisome proliferator-activated receptor delta (Homo sapiens, UniProt Q03181).
T1 sequence (Q03181 whole entry): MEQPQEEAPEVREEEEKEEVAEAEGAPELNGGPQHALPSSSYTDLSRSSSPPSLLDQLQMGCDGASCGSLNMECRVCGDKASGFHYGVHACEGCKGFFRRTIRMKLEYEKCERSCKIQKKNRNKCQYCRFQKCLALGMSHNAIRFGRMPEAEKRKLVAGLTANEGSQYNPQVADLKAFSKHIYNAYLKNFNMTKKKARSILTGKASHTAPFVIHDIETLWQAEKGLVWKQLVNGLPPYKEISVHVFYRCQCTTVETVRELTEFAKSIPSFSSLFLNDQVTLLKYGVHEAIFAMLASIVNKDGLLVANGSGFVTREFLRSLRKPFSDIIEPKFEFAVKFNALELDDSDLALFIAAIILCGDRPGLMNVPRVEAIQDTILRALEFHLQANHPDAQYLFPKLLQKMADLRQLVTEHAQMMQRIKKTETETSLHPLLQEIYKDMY
The series is described as follows: Transactivation of human PPARdelta expressed in African green monkey COS7 cells incubated overnight by dual-glo luciferase reporter gene assay. The series is classed as cell-based. Particulars: cos-7. (A reporter such as luciferase makes a cellular process visible.)

Series [4] addresses T2, Peroxisome proliferator-activated receptor alpha (Homo sapiens) (UniProt Q07869).
T2 sequence (whole entry): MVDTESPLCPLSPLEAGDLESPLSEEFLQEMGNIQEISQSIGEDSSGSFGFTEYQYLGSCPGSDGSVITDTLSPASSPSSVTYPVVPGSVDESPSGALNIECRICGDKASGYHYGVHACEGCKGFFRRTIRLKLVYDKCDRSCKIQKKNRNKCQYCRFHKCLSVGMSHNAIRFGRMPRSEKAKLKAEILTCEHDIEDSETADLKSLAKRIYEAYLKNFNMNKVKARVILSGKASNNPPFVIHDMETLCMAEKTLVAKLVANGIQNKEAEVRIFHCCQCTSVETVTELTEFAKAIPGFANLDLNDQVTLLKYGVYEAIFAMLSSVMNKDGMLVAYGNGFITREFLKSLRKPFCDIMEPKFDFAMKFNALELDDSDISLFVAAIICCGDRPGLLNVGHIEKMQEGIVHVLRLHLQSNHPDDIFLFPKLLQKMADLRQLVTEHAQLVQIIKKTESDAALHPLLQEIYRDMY
The series is described as follows: Transactivation of human PPARalpha expressed in African green monkey COS7 cells incubated overnight by dual-glo luciferase reporter assay relative to GW7647. The format is cell-based. The conditions noted are these: COS-7.

For series [5], the target named is T3, Peroxisome proliferator-activated receptor delta (Homo sapiens) (UniProt Q03181).
T3 sequence (whole entry): T1 sequence (Q03181 whole entry)
The series is described as follows: Transactivation of human PPARdelta expressed in African green monkey COS7 cells at 10 uM incubated overnight by dual-glo luciferase reporter assay. The format is cell-based. Particulars: COS-7.

The target of series [6] is T4, Peroxisome proliferator-activated receptor gamma (Mus musculus) (UniProt P37238).
T4 sequence (whole entry): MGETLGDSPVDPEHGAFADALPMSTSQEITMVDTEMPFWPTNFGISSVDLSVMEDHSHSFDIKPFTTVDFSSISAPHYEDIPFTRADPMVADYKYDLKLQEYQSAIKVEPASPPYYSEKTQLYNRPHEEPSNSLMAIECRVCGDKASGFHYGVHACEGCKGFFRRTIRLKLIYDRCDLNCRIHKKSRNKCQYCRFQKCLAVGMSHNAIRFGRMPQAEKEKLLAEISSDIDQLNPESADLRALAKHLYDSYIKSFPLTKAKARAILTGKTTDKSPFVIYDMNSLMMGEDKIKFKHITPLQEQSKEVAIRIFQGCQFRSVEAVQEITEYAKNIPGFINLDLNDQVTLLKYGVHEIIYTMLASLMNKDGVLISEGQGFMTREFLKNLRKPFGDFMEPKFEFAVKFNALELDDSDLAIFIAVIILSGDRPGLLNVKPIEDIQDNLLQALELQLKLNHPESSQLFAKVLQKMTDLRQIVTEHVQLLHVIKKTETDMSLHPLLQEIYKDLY
The series is described as follows: Transactivation of PPARgamma in mouse 3T3L1 cells assessed as adipocyte differentiation by Oil Red O staining-based assay. The format is cell-based. Particulars: 3T3-L1.

The target in series [7] is T5, Peroxisome proliferator-activated receptor gamma (Homo sapiens) (UniProt P37231).
T5 sequence (whole entry): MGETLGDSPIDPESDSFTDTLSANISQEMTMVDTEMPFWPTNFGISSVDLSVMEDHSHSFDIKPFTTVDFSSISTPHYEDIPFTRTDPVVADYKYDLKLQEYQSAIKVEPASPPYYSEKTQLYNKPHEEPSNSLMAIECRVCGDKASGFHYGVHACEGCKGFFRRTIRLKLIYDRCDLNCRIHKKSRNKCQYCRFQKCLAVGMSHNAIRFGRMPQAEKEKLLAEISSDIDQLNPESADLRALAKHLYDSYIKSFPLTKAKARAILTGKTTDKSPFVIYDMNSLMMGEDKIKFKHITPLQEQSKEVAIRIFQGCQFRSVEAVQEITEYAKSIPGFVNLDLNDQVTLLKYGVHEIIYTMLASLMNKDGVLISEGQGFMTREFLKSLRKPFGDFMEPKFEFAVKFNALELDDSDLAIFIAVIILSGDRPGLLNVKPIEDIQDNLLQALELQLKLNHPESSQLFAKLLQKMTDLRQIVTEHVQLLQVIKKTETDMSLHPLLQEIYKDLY
The series is described as follows: Transactivation of PPARgamma in human primary preadipocytes assessed as adipocyte differentiation by Oil Red O staining-based assay. The format is cell-based.

In series [8] the target is T4, Peroxisome proliferator-activated receptor gamma (Mus musculus). The series is described as follows: Transactivation of PPARgamma in mouse 3T3L1 cells assessed as increase in […] expression by qPCR method. The format is cell-based. The conditions noted are these: 3T3-L1. For orientation: Real-time PCR tracks product formation cycle by cycle.
Series [9] shares this target. The series is described as follows: Transactivation of PPARgamma in mouse 3T3L1 cells assessed as increase in adiponectin expression by qPCR method. The format is cell-based. The conditions noted are these: 3T3-L1.
Series [10] has the same target. The series is described as follows: Transactivation of PPARgamma in mouse 3T3L1 cells assessed as increase in FABP4 expression by qPCR method. The series is classed as cell-based. Particulars: 3T3-L1.
For series [11] the target is unchanged. The series is described as follows: Transactivation of PPARgamma in mouse 3T3L1 cells assessed as increase in LPL expression by qPCR method. The format is cell-based. Particulars: 3T3-L1.
For series [12], the target named is T5, Peroxisome proliferator-activated receptor gamma (Homo sapiens). The series is described as follows: Transactivation of PPARgamma in human primary preadipocytes assessed as increase in […] expression at 10 uM by qPCR method. The series is classed as cell-based.
For series [13] the target is unchanged. The series is described as follows: Transactivation of PPARgamma in human primary preadipocytes assessed as increase in adiponectin expression at 10 uM by qPCR method. The series is classed as cell-based.
For series [14] the target is unchanged. The series is described as follows: Transactivation of PPARgamma in human primary preadipocytes assessed as increase in FABP4 expression at 10 uM by qPCR method. The series is classed as cell-based.
Series [15] has the same target. The series is described as follows: Transactivation of PPARgamma in human primary preadipocytes assessed as increase in LPL expression at 10 uM by qPCR method. The series is classed as cell-based.
In series [16] the test system is Mus musculus. The series is described as follows: Drug level in RjOrl:Swiss (CD-1) mouse plasma treated with Ethyl 2-Ethyl 3-[4-(N-((2-trifluoromethyl)benzyl)benzamide)]propanoate at 30 mg/kg, po administered as single dose. The series is classed as ADME, organism-based. Particulars: in vivo.
Series [17] concerns the target T6, Peroxisome proliferator-activated receptor alpha (Homo sapiens, UniProt Q07869).
T6 sequence (Q07869 whole entry): T2 sequence (whole entry)
Particulars: cos-7.
Description: Transactivation of human PPARalpha expressed in African green monkey COS7 cells incubated overnight by dual-glo luciferase reporter gene assay

In series [18] the test system is Mus musculus. The series is described as follows: Tmax in RjOrl:Swiss (CD-1) mouse plasma assessed as 2-Ethyl-3-[4-(N-((2-trifluoromethyl)benzyl)benzamide)]-propionic Acid at 30 mg/kg, po administered as single dose. The format is ADME, organism-based. The conditions noted are these: in vivo.
For series [19], the system named is Mus musculus. The series is described as follows: AUC (0 to infinity) in RjOrl:Swiss (CD-1) mouse plasma assessed as 2-Ethyl-3-[4-(N-((2-trifluoromethyl)benzyl)benzamide)]-propionic Acid at 30 mg/kg, po administered as single dose. The format is ADME, organism-based. More on the design: dose 30 mg/kg, route oral, time infinity. The conditions noted are these: in vivo.

Series [20] deals with Mus musculus. The series is described as follows: Apparent oral clearance in RjOrl:Swiss (CD-1) mouse plasma assessed as 2-Ethyl-3-[4-(N-((2-trifluoromethyl)benzyl)benzamide)]-propionic Acid at 30 mg/kg administered as single dose. The format is ADME, organism-based. Particulars: in vivo.
For series [21], the system named is Mus musculus. The series is described as follows: Apparent volume of distribution during terminal phase in RjOrl:Swiss (CD-1) mouse plasma assessed as 2-Ethyl-3-[4-(N-((2-trifluoromethyl)benzyl)benzamide)]-propionic Acid at 30 mg/kg, po administered as single dose. The series is classed as ADME, organism-based. Particulars: in vivo.
The subject of the next series is Brain. The series is described as follows: Drug uptake in RjOrl:Swiss (CD-1) mouse brain assessed as 2-Ethyl-3-[4-(N-((2-trifluoromethyl)benzyl)benzamide)]-propionic Acid at 30 mg/kg, po administered as single dose. The conditions noted are these: in vivo. The format is ADME, organism-based.
Series [22] concerns Mus musculus. The series is described as follows: Drug metabolism in RjOrl:Swiss (CD-1) mouse plasma assessed as 2-Ethyl-3-[4-(N-((2-trifluoromethyl)benzyl)benzamide)]-propionic Acid formation at 30 mg/kg, po administered as single dose. The series is classed as ADME, organism-based. Particulars: in vivo.
For series [23], the system named is Mus musculus. The series is described as follows: Cmax in RjOrl:Swiss (CD-1) mouse plasma assessed as 2-Ethyl-3-[4-(N-((2-trifluoromethyl)benzyl)benzamide)]-propionic Acid at 30 mg/kg, po administered as single dose. More on the design: dose 30 mg/kg, route oral. Particulars: in vivo. The series is classed as ADME, organism-based.

By CL/F is commonly meant the apparent clearance, not corrected for the fraction that reaches the circulation. Usually solubility stands for how much of the substance goes into solution per volume. What is called Tmax is the time from dosing to the highest level. What is called AUC is the area under the concentration-time curve, a measure of exposure. Usually Cmax stands for the maximum level reached in the sampled fluid or tissue.

Converted amounts (≈) assume the structure as drawn. The source made the active and inactive calls. No cut-off for these calls is given here.

As to `CCC(Cc1ccc(C(=O)NCc2ccccc2C(F)(F)F)cc1)C(=O)O` (stereo not given), the apparent clearance CL/F in [1] is 31.7 mL/min/kg. In addition, the Activity entry is “Non-toxic” in the series on HepG2; “Dose-dependent effect” in series [6]; “Dose-dependent effect” in series [7]; “Dose-dependent effect” in [8]; “Dose-dependent effect” in series [9]; “Dose-dependent effect” in [10]. Further, the Activity result in [11] is “Dose-dependent effect”. In addition, the concentration in solution in series [2] (solubility) was 75 µM (≈ 28.5 µg/mL). Further, the EC50 entry in series [3] and in [17] was “Not Active” each time. In addition, the Emax result in series [4] and in [5] was “inactive” throughout. The result in series [12], in series [13], in series [14] and in series [15] was Active. Moreover, in the series on Mus musculus [16], the Drug metabolism entry is given as “metabolite_detected”.

Take `CCOC(=O)C(CC)Cc1ccc(C(=O)NCc2ccccc2C(F)(F)F)cc1` (stereo not given): in the series with Mus musculus [18], the Tmax was determined as 30 min. Moreover, the AUC with Mus musculus [19] is 4026 ng·h/mL. The apparent clearance CL/F in the series on Mus musculus [20] is 125 mL/min/kg. In the series on Mus musculus [21], the Vz/F was 54.3 L/kg. The Drug uptake with Brain is on record as 30 ng/g. In addition, the solubility in series [2] was 2.5 µM (≈ 1.02 µg/mL). The EC50 result in series [3] and in series [17] was “Not Active” throughout. For the same molecule, the Emax result in series [4] and in series [5] was “inactive” throughout. Besides, the Drug metabolism result in the series with Mus musculus [22] is “metabolite_detected”. Moreover, the Cmax in the series with Mus musculus [23] turned out to be 2000 nM.

Values taken from ChEMBL document CHEMBL3763124, “N-Benzylbenzamides: A Novel Merged Scaffold for Orally Available Dual Soluble Epoxide Hydrolase/Peroxisome Proliferator-Activated Receptor γ Modulators” (J Med Chem, 2016).
